The results in this text go back to article PMC9964390, “Design, Synthesis and Phenotypic Profiling of Simplified Gedatolisib Analogues” (Pharmaceuticals, 2023).

Data set [1] deals with PC-3, MCF7, K562, CCRF-CEM and MOLT-4. Kind of data set: MTT single-concentration cytotoxicity screening. The settings on record: for solubility in the culture medium: during screening at 30 μM; for cytotoxic activity at screening concentration: single concentration 1 μM; for cytotoxic effect on leukemia cell lines at single concentration: single concentration 30 μM, reduction in cell viability ≥ 50% selected for CC50. The data set is classed as cell-based, human. How it is done:
In a first approach, the assay was validated with two standard drugs: gedatolisib and GSK-1059615.
After understanding the response profile of the selected cell lines to the treatment with gedatolisib and GSK-1059615, we investigated the cytotoxic activity of compounds 5a-f at a single concentration (30 μM). […] During the experiments, compounds 5a (LASSBio-2250), 5b (LASSBio-2251) and 9 (CAS-942789959) were insoluble and precipitated on the culture medium. Therefore, they were evaluated also at the screening concentration of 1 μM.
(§1) Cell viability was assessed by the MTT assay. The lines selected for this study were plated according to their respective densities, which ranged from 3 × 10^4 to 4 × 10^4 cells per well. Subsequently, they were treated with test compounds at different concentrations (0.00003 μM to 150 μM), gedatolisib and GSK-1059615.
(§2) After incubation, the plates are centrifuged at 440× g for 10 min. Then, 110 μL of the supernatant was withdrawn and each well received 10μL of the MTT solution. The plate was again incubated in an oven at 37 °C and 5% CO2 for 3 to 4 h. At the end of the incubation time, 100 μL of SDS-HCL detergent was added to solubilize the formazan crystals. The plate was shaken on an automatic overnight shaker and then read at a wavelength of 595 nm on the Molecular Devices Spectramax M5 plate reader.

A short description of data set [2]: pH-dependent aqueous solubility (UV spectrophotometry). The data set is classed as physicochemical. The settings on record: aqueous buffer, thermodynamic from solid, 37 °C. The procedure: A stock solution of the target compound was prepared by dissolving 1 mg in methanol, and the wavelength of greatest absorption of each compound was obtained by scanning between wavelengths from 200 nm to 500 nm. Six dilutions were prepared from the stock solution and the absorbance reading in the UV spectrophotometer (SpectraMax M5, Molecular Devices, USA). The calibration curve with linear regression was created with the values obtained, and the solubility test was measured by correlating the concentration with the absorbance obtained by ultraviolet. Each compound was added in excess at phosphate buffer solution pH 5.8 and 7.4 to obtain a supersaturated solution that was kept under stirring for 4 h at 37 °C and then was filtered through a 0.45 µm filter for reading at the corresponding wavelengths. The solubility was determined through the equation of the straight line obtained by the linear regression of the calibration curve of the compounds [24, 25].

For the next data set, the system named is CCRF-CEM. Kind of data set: MTT cell viability assay. The settings on record: Homo sapiens, 72 h MTT; for CC50: 95% confidence interval in brackets; for Emax: read-out: Emax (maximum effect at maximum concentration used). Format: cell-based, human. How it is done: (§3) For the evaluation of cellular cytotoxicity in cancer cell lines, the compounds were tested at concentrations ranging from 0.00003 μM to 150 μM. Immortalized cancer cells were selected: PC-3 (PTEN-mutated prostate adenocarcinoma), MCF-7 (PI3KCA-mutated breast carcinoma), K562 (P53-mutated chronic myeloid leukemia), CCRF-CEM (acute lymphoblastic leukemia with mutation in PTEN) and MOLT-4 (acute lymphoblastic leukemia with mutation in PI3KR1/PTEN). Peripheral blood mononuclear cells (PBMCs) were used to determine the cytotoxic selectivity index (SI). All immortalized cells were cultured in RPMI 1640 medium with 10% (v/v) FBS, streptomycin + penicillin, at 37 °C in a humidified incubator containing 5% CO2.
as §1, §2

For a further data set, the system named is MOLT-4. Kind of data set: MTT cell viability assay. The settings on record: Homo sapiens, MOLT-4, 72 h MTT; for CC50: 95% confidence interval in brackets; for Emax: read-out: Emax (maximum effect at maximum concentration used). Format: cell-based, human. How it is done:
as §3, §1, §2
On the technique in general: Formazan colour is commonly taken as a measure of viable cells.

Another data set relates to K562. Put plainly: MTT cell viability assay. The settings on record: Homo sapiens, K562, 72 h MTT; for CC50: 95% confidence interval in brackets; for Emax: read-out: Emax (maximum effect at maximum concentration used). The data set is classed as cell-based. How it is done: as §3, §1, §2
For the next data set, the system named is PC-3. Put plainly: MTT cell viability assay. The data set is classed as cell-based. Particulars: Homo sapiens, PC-3, 72 h MTT; for CC50: 95% confidence interval in brackets; for Emax: read-out: Emax (maximum effect at maximum concentration used). How it is done:
as §3, §1, §2

A further data set relates to MCF7. Kind of data set: MTT cell viability assay. The data set is classed as cell-based. The settings on record: Homo sapiens, MCF7, 72 h MTT; for CC50: 95% confidence interval in brackets; for Emax: read-out: Emax (maximum effect at maximum concentration used). The procedure: as §3, §1, §2
In a further data set the test system is CCRF-CEM cell line. Put plainly: Muse Cell Cycle Kit. Particulars: 48 h. The data set is classed as cell-based, human. How it is done: The Guava Muse Luminex® Cell Cycle Kit (catalog n^o MCH100106, Luminex) contains the DNA marker propidium iodide (PI) and RNAse A to avoid nonspecific labelling.
After 48 h of incubation in an incubator at 37 °C with 5% CO2, 1 mL of the MOLT-4 cell solution and 500 µL of the CCRF-CEM cell solution, contained in the wells, were transferred to Eppendorf tubes and centrifuged at 300× g for 5 min. The volumes used ensured that the cell density remained within the recommended range (1 × 10^6 to 4 × 10^6 cells/mL) at the end of the 48 h incubation period.
The supernatant was discarded, and the pellet formed was resuspended in 1 mL of saline PBS, homogenised, and centrifuged at 300× g for 5 min. The formed pellet was resuspended in residual PBS by homogenization. To fix cellular events, 1 mL of ice-cold 70% alcohol was added dropwise into the tubes and vortexed at medium speed. The samples were incubated, before staining, for at least 3 h at −20 °C.
At the end of the incubation time at −20 °C, the samples were centrifuged at 300× g for 5 min, and then the supernatant was discarded and resuspended in 250 µL of PBS. The samples were again centrifuged at 300× g for 5 min and the supernatant discarded, which constituted the washing step. The pellet formed was resuspended in 200 µL of the Guava Muse Luminex® Cell Cycle, and the tubes were incubated for 30 min at room temperature, away from light.
After incubation, the samples were read in Guava Muse Luminex®, and the data with the histograms generated, which contain information on the percentage of the different phases of the cell cycle, were analysed in the statistical program Prism6. This methodology was performed in duplicate of three independent experiments.

Setting [3] is: phosphate buffer pH 5.8 (duodenum), read-out: Solubility pH 5.8.
Where [4] appears, read: phosphate buffer pH 7.4 (plasma), read-out: Solubility pH 7.4.

Values after ≈ are worked out from the molar mass of the structure shown. Like-named read-outs stand apart in the source and are kept apart here.

The term solubility denotes the concentration that dissolves in the medium under given conditions. The melting point is the temperature, or range, at which the solid turns liquid. `c1ccc(N2CCN(c3nc(N4CCOCC4)nc(N4CCSCC4)n3)CC2)cc1` [5a, 4-(4-(4-Phenylpiperazin-1-yl)-6-thiomorpholino-1,3,5-triazin-2-yl)morpholine] registered a melting point of 170 °C. In addition, in data set [1], the “solubility in the culture medium” value is on record as “insoluble” and the “cytotoxic activity at screening concentration” value (“cytotoxic activity” below) was “inactive”. Besides, the solubility at 4 h in data set [2] (setting [3]) was 0.52 µM (≈ 0.222 µg/mL). The solubility at 4 h in data set [2] (setting [4]) was 2.88 µM (≈ 1.23 µg/mL).

Take `c1ccc(N2CCN(c3nc(N4CCCCC4)nc(N4CCOCC4)n3)CC2)cc1` [5b, 4-(4-(4-Phenylpiperazin-1-yl)-6-(piperidin-1-yl)-1,3,5-triazin-2-yl)morpholine]: in data set [1], the “solubility in the culture medium” value is given as “insoluble” and the “cytotoxic activity” value is “inactive”. Moreover, in [2] (setting [3]), the solubility at 4 h was found to be 2.84 µM (≈ 1.16 µg/mL). In data set [2] (setting [4]), the solubility at 4 h was 0.51 µM (≈ 0.209 µg/mL).

One may read the CC50 as the concentration that lowers cell viability or growth by half. The low end stands for harm at low concentration, the high end for better tolerance by the cells. As to `c1ccc(N2CCN(c3nc(N4CCNCC4)nc(N4CCOCC4)n3)CC2)cc1` [5c], the “cytotoxic effect on leukemia cell lines at single concentration” value in data set [1] was “cytotoxic effect”. Moreover, the CC50 with CCRF-CEM was 37.3 µM; in the data set with MOLT-4, 31.8 µM; with K562, 25.6 µM; in the data set with PC-3 it was 92.3 µM; with MCF7 it was over 100 µM. The Emax with CCRF-CEM is 94%; in the data set with MOLT-4 it was 93%; with K562, 85%; in the data set on PC-3, 58%; with MCF7 it was 57%. The solubility at 4 h in data set [2] (setting [3]) is 43.4 µM (≈ 17.8 µg/mL); in data set [2] (setting [4]) it was 59.1 µM (≈ 24.3 µg/mL).

In the case of `CN1CCN(c2nc(N3CCOCC3)nc(N3CCN(c4ccccc4)CC3)n2)CC1` [5d, 4-(4-(4-Methylpiperazin-1-yl)-6-(4-phenylpiperazin-1-yl)-1,3,5-triazin-2-yl)morpholine], the melting point was 135 °C. Also, the “cytotoxic effect on leukemia cell lines at single concentration” value in [1] is listed as “cytotoxic effect”. Besides, in the data set with CCRF-CEM, the CC50 amounted to 66.5 µM and the Emax stood at 95%. Further, in the data set on MOLT-4, the CC50 came out at 64.1 µM and the Emax came out at 91%. Moreover, in [2] (setting [3]), the solubility at 4 h worked out at 30.7 µM (≈ 13 µg/mL). Also, the solubility at 4 h in [2] (setting [4]) is 50.9 µM (≈ 21.6 µg/mL). Further, in the data set with K562, the midpoint of cytotoxicity, the CC50, lay at 50.2 µM and the Emax amounted to 80%. In the data set with PC-3, the CC50 came to 91.3 µM and the Emax was found to be 72%. In the data set with MCF7, the CC50 was over 100 µM and the Emax is 77%.

Take `OCCN1CCN(c2nc(N3CCOCC3)nc(N3CCN(c4ccccc4)CC3)n2)CC1` [5e, 2-(4-(4-Morpholino-6-(4-phenylpiperazin-1-yl)-1,3,5-triazin-2-yl)piperazin-1-yl)ethan-1-ol]: the melting point was found to be 92 °C. Also, the solubility at 4 h in data set [2] (setting [3]) came out at 31.2 µM (≈ 14.2 µg/mL). For the same compound, the solubility at 4 h in data set [2] (setting [4]) turned out to be 49.1 µM (≈ 22.3 µg/mL).

On to `O=C1NC(=O)/C(=C/c2ccc3nccc(-c4ccncc4)c3c2)S1` [GSK-1059615, reference compound], for which the CC50 came out at 0.43 µM in the data set with CCRF-CEM; 0.63 µM in the data set on MOLT-4; 1.82 µM with K562; 6.78 µM with PC-3; 0.55 µM in the data set with MCF7. Besides, the Emax in the data set with CCRF-CEM came to 93%; in the data set on MOLT-4, 92%; with K562, 84%; with PC-3, 67%; with MCF7, 80%.

Regarding `CC[C@]1(O)C[C@H]2CN(CCc3c([nH]c4ccccc34)[C@@](C(=O)OC)(c3cc4c(cc3OC)N(C=O)[C@H]3[C@@](O)(C(=O)OC)[C@H](OC(C)=O)[C@]5(CC)C=CCN6CC[C@]43[C@@H]65)C2)C1` [Vincristine, vincristine], the “action on the cell cycle” value in the data set on CCRF-CEM cell line (5 µM) is reported as “increased arrest in the G2/M phase”.

For `c1ccc(N2CCN(c3nc(N4CCOCC4)nc(N4CCOCC4)n3)CC2)cc1` [compound 9, reference compound], in data set [1], the “solubility in the culture medium” value is “insoluble”. Further, the “cytotoxic activity” value in data set [1] is “inactive”. Also, the solubility at 4 h in data set [2] (setting [3]) came out at 3.92 µM (≈ 1.61 µg/mL); in [2] (setting [4]) it was 6.03 µM (≈ 2.48 µg/mL).

On to `COc1cccc2c1C(=O)c1c(O)c3c(c(O)c1C2=O)C[C@@](O)(C(=O)CO)C[C@@H]3O[C@H]1C[C@H](N)[C@H](O)[C@H](C)O1` [doxorubicin], for which the “action on the cell cycle” value in the data set on CCRF-CEM cell line (0.5 µM) is given as “nonspecific action on the cell cycle”.
